Patent US9351818B2, “Process for the synchronization of ovulation for timed breeding without heat detection” (priority 2003, dated 2016)

Legend:
mature postpartum sows = assay: Intravulvar deslorelin at estrus detection with AI in mature postpartum sows (Example 2); format: in vivo, swine; settings: 50 μg deslorelin acetate intravulvar at first estrus detection, then AI again if in estrus the next day
Procedure: Sows were assigned randomly in blocks of two to either control or to be injected intravulvar with 50 mcg of deslorelin in SAIB at the time of estrus detection for sows first detected in estrus in the a.m. and 12 hours later for those first detected in estrus in the p.m. Treated animals were bred AI upon detected estrus and again 24 hours later if still in estrus. Controls received a saline injection on first detected estrus behavior estrus detection and were bred according to the farm's normal procedures.

postpartum sows = assay: Single timed deslorelin injection 96 hours post-weaning with single timed insemination, no estrus detection (Example 3); format: in vivo, swine; settings: 50 mcg in SAIB at 96 hours post-weaning; single insemination 28+/-2 hours later
Procedure: Approximately 170 postpartum sows were randomly divided into two equal groups comprised of controls and treated. Following weaning, the controls were detected for estrus and bred following the normal standard operating procedures for the farms on which they resided. The treated sows received a 50 mcg dose of deslorelin in SAIB at 96 hours post-weaning and were bred with a single insemination 28+/−2 hours later with no regard to estrus detection. The sows were examined for pregnancy by ultrasound at 21 days and slaughtered around 28 days post breeding. The entire reproductive tract was removed and corpora lutea and embryos were counted.

CCNC(=O)[C@@H]1CCCN1C(=O)[C@H](CCCN=C(N)N)NC(=O)[C@H](CC(C)C)NC(=O)[C@@H](Cc1c[nH]c2ccccc12)NC(=O)[C@H](Cc1ccc(O)cc1)NC(=O)[C@H](CO)NC(=O)[C@H](Cc1c[nH]c2ccccc12)NC(=O)[C@H](Cc1cnc[nH]1)NC(=O)[C@@H]1CCC(=O)N1 [Deslorelin, deslorelin]
Pregnancy Rate (mature postpartum sows): 91%
Embryo Survival (postpartum sows): 64%
